A short description of data set [1]: Preliminary toxicology studies.
For data set [2] the following is noted: rat, in vivo, inhaled or intranasal.
Protocol: (§1) The specific activity was 50 Ci/mmol. The purity and identity of NAP was ascertained using high performance liquid chromatography (HPLC) Zorbax SB-C18 (250×4.6 mm) 5 μm, and elution with a 5-25% methanol gradient in 0.1% trifluoroacetic acid over 20 minutes and detection by UV at 220 nm and [^3H] detector β-Ram. Two and half microliter of a solution containing 1 mCi/ml were applied to each nostril of a (200-300 g) male Wistar rat. At designated time points, rats were sacrificed and tissues solubilized (100 mg in one ml Luma Solve, Lumac by., Landgraaf, Netherlands, Netherlands) at 55° C. for 12 hours. Radioactivity was determined following the addition of Optiflour (10 ml/100 mg, Packard, Groningen, Netherlands) in a beta scintillation counter.
(§2) For determination of intact NAP in the brain, cortical tissue was homogenized with phosphate buffered saline (PBS) at 4° C. (100 mg/1 ml) and the homogenate was submitted to a 10,000 g centrifugation (10 min.) at 4° C. The resulting supernatant was frozen at −80° C. and further subjected to HPLC (RP-18, Merck, 250×4 mm; 5 μm), employing a linear gradient established between 35% acetonitrile and 75% acetonitrile in water containing 0.1% trifluoroacetic acid (Gozes et al., Proc. Nati. Acad. Sci. U.S.A. 96:4143-4148 (1999)).
The conditions of data set [3]: rat.
Protocol: as §1, §2
For a further data set, the system named is neuroblastoma cell. As to conditions: buthionine sulfoximine induced; cited from earlier work.
The subject of the next data set is C57-B16J mice. Briefly: Morris water maze in male offspring after prenatal treatment of pregnant mice. Type of data set: in vivo, mouse. As to conditions: vs vehicle; for Latency to find the hidden platform, prenatal oral single peptide 40 μg: gavage on pregnancy day 8, 40 μg. The method, then:
C57-B16J female mice (Jackson Labs) were kept under a 12 h light, 12 h dark regimen with food and water available at all times. The mice received humane animal care in compliance with the “Guideline for Care and Use of Experimental Animals.” Six week old females (21-24 grams) were mated with C57-B16J males for 4 h. The presence of a vaginal plug was considered day 0 pregnancy.
Animals were injected intraperitoneally on pregnancy day 8, or treated on pregnancy day 8 after 1 hour fast with gavage dose of ADNF polypeptides. NAP was diluted in 50 μl DMSO and diluted in filtered Dulbecco 's phosphate buffered saline (DPBS). SAL was dissolved and diluted in filtered DPBS. Control animals were treated with a vehicle (i.e., DPBS). All treatments were coded.
Delivery occurred on day 20, weaning on day 20 of life. Male offspring were eartagged with all identifying markers of coded treatments removed.
Only male mice were used for the water maze trials. Testing of mice began at 35-50 days, typically on day 38, twice daily (two trials) for 7 days.
Morris water maze test used is adapted from “repeated acquisition of a spatial navigation task in mice: Effects of spacing of trials and of unilateral middle cerebral artery occlusion” Klapdor & Van der Staay, Physiology & Behav. 63(5):903-909 (1998). A trial consists of attempting to find the hidden platform from 4 set points. Specifically, testing of mice began in the mornings, typically between 9 and 9:30. Consistent timing is important to any behavioral study. Testing of mice was performed in a random order to prevent chronological bias by the researcher. Maze was set up the day before, to allow water time to adjust to room temperature. 100-150 ml of non-toxic white tempura is added and mixed. […]
On days 2-7, mice are only given 15 seconds on the platform before the initial trial. […] The daily average escape latency is calculated and plotted along the 7 day period for test administration. […]

A short description of data set [4]: Biodistribution and intactness of [3H]-NAP following intranasal administration.
In data set [5] the test system is AF64A-treated rats. Briefly: Water maze (two daily tests, hidden platform) in AF64A cholinotoxicity rats, intranasal peptide. The settings on record: 1 μg peptide intranasal daily, vs AF64A-vehicle. Format: in vivo, rat. The method, then:
Rats were subjected to two daily tests in a water maze, including a hidden platform (Morris, R., J. Neurosci. Methods 11:47-60 (1984); Gordon et al., Neurosci. Lett. 199:1-4 (1995); Gozes et al., J Neurobiol. 33:329-342. (1997a)). Every day for the first test, both the platform and the animal were situated in a new location with regards to the pool (with the pool being immobile).
The experiment was performed as follows: the animal was positioned on the platform for 0.5 min., then placed in the water. The time required to reach the platform (indicative of learning and intact reference memory) was measured (first test). […] The time required to reach the platform in the second trial was recorded, indicative of short-term (working) memory. […]
After a week of peptide treatment, the animals were subjected to two daily tests in the water maze (as above). […] To avoid bias related to changes in motor activity in the various treatment groups, a probe trial test that assessed spatial memory was also utilized as follows. After four days of training and testing, the platform was removed and on day 5 the animals were subjected to swimming in the pool (120 sec) without the platform; in these experiments, the time spent in the quadrant of the pool where the platform used to be was recorded. […]

Data set [6] relates to AF64A-treated rats. Briefly: Probe trial (platform removed, time in platform quadrant) in rats. Type of data set: in vivo, rat. As to conditions: AF64A-treated rats given peptide intranasally vs AF64A-vehicle, 120 sec swim, p<0.001. An excerpt: After a week of peptide treatment, the animals were subjected to two daily tests in the water maze (as above). During the test-period, animals were also given an intranasal administration of peptide or vehicle (carrier) an hour before the daily tests. To avoid bias related to changes in motor activity in the various treatment groups, a probe trial test that assessed spatial memory was also utilized as follows. After four days of training and testing, the platform was removed and on day 5 the animals were subjected to swimming in the pool (120 sec) without the platform; in these experiments, the time spent in the quadrant of the pool where the platform used to be was recorded. Measurements were performed using the HVS video tracking system (HVS Image Ltd. Hampton, UK).

Data set [7] deals with apolipoprotein E-deficient mice. The settings on record: injection to newborn mice, short-term memory in three-week-old pups; cited from earlier work.
For data set [8] the following is noted: storage at temperatures <4° C.; cited from earlier work.

Square brackets hold non-standard residues; d marks the D form. Ends that are not written are not given here.

With `CC[C@H](C)[C@H](NC(=O)[C@H](CO)NC(=O)[C@@H](NC(=O)[C@@H]1CCCN1C(=O)[C@H](C)NC(=O)[C@@H](N)CC(N)=O)C(C)C)C(=O)N1CCC[C@H]1C(=O)N[C@@H](CCC(N)=O)C(=O)O` [NAP, Asn-Ala-Pro-Val-Ser-Ile-Pro-Gln], in data set [1], the Toxic effects entry is recorded as “no toxic effects”. The molecule also gave a half-life in data set [2] of approximately 15 min. In addition, the “In vivo metabolism by HPLC analysis” value in data set [3] is recorded as “metabolized in vivo to multiple fragments”. For the same molecule, in [3] (in vivo), the “Fraction of material intact in the brain, 30 min” value is reported as “at least 12%”; the “Total material eluted from the HPLC column, cortex, 30 min” value came to 807.8 fmole/g tissue; the “Total material eluted from the HPLC column, cortex, 60 min” value is 1198.9 fmoles/g tissue.
As to `CCCCS(=N)(=O)CCC(N)C(=O)O` (stereo not drawn) [buthionine sulfoximine, Buthionine sulfoximine], the “Decrease in neuroblastoma cell viability” value in the data set on neuroblastoma cell is reported as 70-90%.
For “D-NAP: NAP (NAPVSIPQ) made of D-amino acids, for oral administration”, in the data set with C57-B16J mice, the “Latency to find the hidden platform, prenatal oral single peptide 40 μg” value is reported as “trend of faster latencies”.
“D-SAL: SAL (SALLRSIPA) made of D-amino acids, for oral administration ([dS][dA][dL][dL][dR][dS][dI][dP][dA])”: in the data set with C57-B16J mice, the “Latency to find the hidden platform, prenatal oral single peptide 40 μg” value was “trend of faster latencies”. Also, the “Latency to find the hidden platform, prenatal oral double dose 80 μg” value in the data set with C57-B16J mice (gavage on pregnancy day 8, 80 μg) is “perform similarly to the control animals”.
In the case of NAP, propyl 3-3,4-[^3H] [[^3H]-NAP], the “Time of highest total radioactivity in the brain (cortex)” value in data set [4] (following intranasal administration) came out at 60 min. Also, the “Radioactivity found (calculated as NAP per g tissue)” value in data set [4] (intranasal 22.75 pmole per rat, compared with 91 fmoles/g assumed for homogeneous distribution) is 45 fmoles/g tissue. For the same molecule, in data set [4] (intranasal [3H]-NAP, thirty minutes after administration), the “Organ distribution of total radioactivity” value was “highest levels in the intestine”.
As for SALLRSIPA [ADNF-9], the “Latency to reach the hidden platform, first daily test (reference memory)” value in the data set with AF64A-treated rats [5] (NAP difference on fourth day of testing (p<0.041)) is on record as “apparent insignificant improvement”. Besides, the “Latency to reach the hidden platform, second daily test (short-term memory)” value with AF64A-treated rats [5] (p<0.001) is “significant improvements and reduced latencies”. Further, in the data set on AF64A-treated rats [6], the “Time spent in the quadrant of the pool where the platform was previously positioned (probe trial, day 5)” value is given as “significantly increased”. Besides, the “Amelioration/prevention of memory deficits in apolipoprotein E-deficient mice” value in data set [7] is “less effective than NAP”. Also, the “Biological activity of PBS solutions upon storage” value in data set [8] was “lost biological activity”.

As a reminder, the half-life is how long it takes for the measured level to halve. Higher therefore signals slow loss.

These data come from patent US7427598B2, “Post-natal administration of activity-dependent neurotrophic factor-derived polypeptides for enhancing learning and memory” (The United States of Americas as represented by the …, priority 2001, dated 2008).
